From ChEMBL document CHEMBL1201862, “PubChem BioAssay data set” (2004)
Active and inactive are the calls of the source.

Columns and labels:
[1] = Shn3 3'UTR reporter inhibitors, dose response, cell-based, Clone20 osteoblasts, firefly luciferase, cherry-picked (AID 624132); type: functional;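 note: firefly luciferase luminescence from reporter carrying the Shn3 3'UTR in osteoblasts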
[2] = control 3'UTR Renilla luciferase suppression, dose response, counter-screen for Shn3 inhibitor project, cell-based, Clone20-Shn3RL, cherry-picked (AID 624133); type: functional
Cytochrome P450 1A2 = target: T1, Cytochrome P450 1A2 (Homo sapiens, UniProt P05177);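 note: PubChem cytochrome P450 panel assay, CYP1A2 panel member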
T1 sequence (P05177 whole entry): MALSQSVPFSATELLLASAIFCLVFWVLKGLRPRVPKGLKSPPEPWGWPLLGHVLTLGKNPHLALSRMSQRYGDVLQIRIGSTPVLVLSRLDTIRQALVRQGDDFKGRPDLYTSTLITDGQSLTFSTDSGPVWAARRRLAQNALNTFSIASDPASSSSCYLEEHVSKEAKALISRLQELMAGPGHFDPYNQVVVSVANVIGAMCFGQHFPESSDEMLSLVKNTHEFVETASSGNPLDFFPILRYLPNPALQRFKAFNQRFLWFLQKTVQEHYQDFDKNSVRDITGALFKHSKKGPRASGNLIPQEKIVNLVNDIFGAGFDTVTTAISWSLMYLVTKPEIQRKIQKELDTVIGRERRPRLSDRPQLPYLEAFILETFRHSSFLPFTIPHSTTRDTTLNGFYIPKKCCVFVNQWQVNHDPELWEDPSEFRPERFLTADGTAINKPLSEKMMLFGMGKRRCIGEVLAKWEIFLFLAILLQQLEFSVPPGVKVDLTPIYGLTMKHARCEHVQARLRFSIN

INS1 = assay: beta cell apoptosis inhibitors, cytokine rescue, dose response, luminescence, retest (AID 449756); type: functional, cell-based; details: Rattus norvegicus;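 note: cell death triggered by IL-1 beta plus TNF-alpha plus IFN-gamma mixture; protective hits raise ATP signal compared with cytokine alone wells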
[3] = target: T2, Heat shock factor protein 1 (Mus musculus, UniProt P38532); assay: inhibition of MG132-induced HSE-luciferase signal, confirmation, cell-based, NIH3T3, luminescence, dose retest (AID 2382); type: functional;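 note: NIH3T3 fibroblasts with HSF1-driven luciferase reporter stressed by proteasome inhibitor MG132; luminescence from HSF1-driven luciferase expression after 8 hours of MG132 stress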
T2 sequence (P38532 whole entry): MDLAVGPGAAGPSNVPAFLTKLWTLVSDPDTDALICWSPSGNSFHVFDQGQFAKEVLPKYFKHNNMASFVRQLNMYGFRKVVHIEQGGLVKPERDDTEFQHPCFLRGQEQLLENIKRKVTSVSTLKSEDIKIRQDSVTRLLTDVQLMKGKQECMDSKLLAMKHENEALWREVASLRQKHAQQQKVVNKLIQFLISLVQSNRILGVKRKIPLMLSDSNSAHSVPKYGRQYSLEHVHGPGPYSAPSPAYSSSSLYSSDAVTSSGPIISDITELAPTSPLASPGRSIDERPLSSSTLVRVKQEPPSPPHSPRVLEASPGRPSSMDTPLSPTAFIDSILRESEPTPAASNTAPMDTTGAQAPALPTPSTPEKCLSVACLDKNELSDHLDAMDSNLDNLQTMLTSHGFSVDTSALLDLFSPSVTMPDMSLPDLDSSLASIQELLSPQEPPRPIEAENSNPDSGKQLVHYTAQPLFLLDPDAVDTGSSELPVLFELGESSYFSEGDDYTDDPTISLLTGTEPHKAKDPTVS

Streptococcus = assay: Group A Streptococcus viability loss, dose response, counter-screen for streptokinase expression inhibitor project, luminescence, BacTiterGlo (AID 1915); type: functional, organism-based;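 note: potency for reduction of bacterial viability or growth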
Streptokinase A = target: T3, Streptokinase A (Streptococcus pyogenes serotype M1, UniProt P10520); assay: S. pyogenes streptokinase expression inhibitors, potency, dose response, plasminogen activation absorbance, OD405 (AID 1914); type: functional, Streptococcus pyogenes M1 GAS;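 note: secreted streptokinase activity via plasminogen activation per viability signal from cell pellet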
T3 sequence (P10520 whole entry): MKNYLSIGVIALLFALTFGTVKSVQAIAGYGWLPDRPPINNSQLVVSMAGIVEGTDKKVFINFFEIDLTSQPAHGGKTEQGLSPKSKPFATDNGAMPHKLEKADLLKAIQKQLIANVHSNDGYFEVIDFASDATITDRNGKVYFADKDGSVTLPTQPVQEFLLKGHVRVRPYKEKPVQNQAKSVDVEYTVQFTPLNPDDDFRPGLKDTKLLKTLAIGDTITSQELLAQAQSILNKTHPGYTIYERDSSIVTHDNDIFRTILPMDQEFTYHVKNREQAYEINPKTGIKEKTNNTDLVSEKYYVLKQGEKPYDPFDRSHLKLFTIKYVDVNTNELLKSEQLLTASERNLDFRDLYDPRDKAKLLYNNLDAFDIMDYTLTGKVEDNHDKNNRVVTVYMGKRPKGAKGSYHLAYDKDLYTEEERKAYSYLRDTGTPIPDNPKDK

[4] = tested on: Streptococcus sp. 'group A'; assay: growth inhibition of control SK(-) GAS strain, dose response, counter-screen for streptokinase expression inhibitor project, luminescence, kanamycin, BacTiterGlo, confirmation (AID 1900); type: functional, organism-based
[5] = Luminescence Cell-Based Dose Retest to Confirm Inhibitors of Cancer Stem Cells. [Related pubchem assays (depositor defined):AID2717, AID2721]; type: functional; details: Homo sapiens
Cytochrome P450 2C9 = Cytochrome P450 2C9 (Homo sapiens, UniProt P11712)
Cytochrome P450 2D6 = Cytochrome P450 2D6 (Homo sapiens, UniProt P10635);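 note: CYP2D6 member of a cytochrome P450 panel assay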
Cytochrome P450 2C19 = Cytochrome P450 2C19 (Homo sapiens, UniProt P33261); assay: Cytochrome panel assay with activity outcomes. Panel member name: p450-cyp2c19 Compounds with AC50 equal or less than 10 uM are considered active; type: functional; details: read-out: AC50
Sequence of Cytochrome P450 2C19 (P33261 whole entry): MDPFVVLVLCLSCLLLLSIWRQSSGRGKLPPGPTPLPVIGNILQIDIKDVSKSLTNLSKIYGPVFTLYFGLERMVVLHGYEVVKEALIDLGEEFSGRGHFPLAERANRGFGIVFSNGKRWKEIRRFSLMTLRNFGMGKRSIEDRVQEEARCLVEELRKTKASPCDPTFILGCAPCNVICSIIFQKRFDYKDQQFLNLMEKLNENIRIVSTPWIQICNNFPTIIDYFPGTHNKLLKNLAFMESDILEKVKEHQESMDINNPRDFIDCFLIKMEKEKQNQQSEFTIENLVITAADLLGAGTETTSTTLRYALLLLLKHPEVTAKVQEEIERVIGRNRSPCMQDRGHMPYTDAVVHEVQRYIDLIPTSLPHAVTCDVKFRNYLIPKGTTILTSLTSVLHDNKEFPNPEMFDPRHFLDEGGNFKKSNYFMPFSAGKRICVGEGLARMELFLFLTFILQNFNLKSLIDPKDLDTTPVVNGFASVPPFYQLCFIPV

Sequence of Cytochrome P450 2D6 (P10635 whole entry): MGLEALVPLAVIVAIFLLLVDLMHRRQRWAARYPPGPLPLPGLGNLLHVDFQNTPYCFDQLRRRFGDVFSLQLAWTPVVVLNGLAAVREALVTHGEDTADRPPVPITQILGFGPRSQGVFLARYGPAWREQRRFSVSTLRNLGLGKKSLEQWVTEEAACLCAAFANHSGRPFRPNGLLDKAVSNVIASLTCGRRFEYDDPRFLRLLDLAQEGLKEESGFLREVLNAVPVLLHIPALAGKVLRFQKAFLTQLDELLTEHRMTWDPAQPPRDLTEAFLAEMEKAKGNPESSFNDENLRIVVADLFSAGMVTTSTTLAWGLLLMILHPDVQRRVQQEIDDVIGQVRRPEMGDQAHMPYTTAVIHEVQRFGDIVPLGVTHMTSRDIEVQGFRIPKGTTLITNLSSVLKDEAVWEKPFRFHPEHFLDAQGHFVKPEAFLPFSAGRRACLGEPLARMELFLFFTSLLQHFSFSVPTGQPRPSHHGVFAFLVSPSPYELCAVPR
Sequence of Cytochrome P450 2C9 (P11712 whole entry): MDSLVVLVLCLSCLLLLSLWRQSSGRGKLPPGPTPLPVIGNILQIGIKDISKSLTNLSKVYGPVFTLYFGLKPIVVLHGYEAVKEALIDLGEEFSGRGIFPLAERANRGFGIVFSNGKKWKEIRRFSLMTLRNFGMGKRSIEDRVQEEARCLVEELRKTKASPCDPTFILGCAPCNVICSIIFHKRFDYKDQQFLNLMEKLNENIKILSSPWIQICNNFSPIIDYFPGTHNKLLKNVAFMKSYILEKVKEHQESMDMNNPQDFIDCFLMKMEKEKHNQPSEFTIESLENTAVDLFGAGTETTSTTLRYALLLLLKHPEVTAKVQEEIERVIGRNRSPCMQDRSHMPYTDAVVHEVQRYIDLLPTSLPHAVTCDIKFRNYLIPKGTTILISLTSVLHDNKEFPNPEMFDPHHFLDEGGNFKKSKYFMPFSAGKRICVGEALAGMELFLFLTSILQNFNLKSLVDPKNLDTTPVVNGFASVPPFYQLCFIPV

Question: With CC(=O)N1c2ccc(S(=O)(=O)N3CCC(C(=O)N4CCN(c5ccccc5F)CC4)CC3)cc2CC1C (configuration not stated) as the compound, how does the AC50 [1] read?
Answer: The AC50 was 5.41 µM (active).

Question: And the AC50 [2]?
Answer: The AC50 was 2.42 µM (active).

Question: With COc1ccc(C2=NOC(C(=O)NCCN3CCOCC3)C2)cc1 (configuration not stated) as the compound, how does the AC50 (Cytochrome P450 1A2) read?
Answer: The AC50 was 31.6 µM (inconclusive).

Question: For COc1ccc(N(C)S(=O)(=O)c2cccc(C(=O)Nc3nc(C)c(C(C)=O)s3)c2)cc1, which AC50 (INS1) is on record?
Answer: The AC50 was 28.3 µM (active).

Question: With CCc1ccccc1N(CC(=O)N1CCCC1)S(C)(=O)=O as the compound, how does the EC50 [3] read?
Answer: The EC50 was > 195 µM (not active).

Question: For NC(=O)C1CCCN(C(=O)c2ccc3oc(Cc4ccc(Cl)cc4)nc3c2)C1 (configuration not stated), which EC50 [3] is on record?
Answer: Its EC50 is > 195 µM (not active).

Question: Which EC50 (Streptococcus) does the source give for COc1ccc(C)cc1NC(=O)NC1CCCc2ccccc21 (configuration not stated) here?
Answer: The EC50 was > 150 µM (not active).

Question: And the EC50 (Streptokinase A)?
Answer: Its EC50 is > 150 µM (not active).

Question: What about the EC50 [4] of the same compound?
Answer: The EC50 was > 150 µM (not active).

Question: For O=C(C(Sc1ccccc1)c1ccccc1)N1CCN(c2ccccc2F)CC1 (configuration not stated), which AC50 (INS1) is on record?
Answer: The AC50 was > 120 µM (inactive).

Question: For Nc1nc2n(c1C(=O)c1ccccc1)CCC2, which EC50 [3] is on record?
Answer: The EC50 was 78 µM (active).

Question: What does the source list for COc1cccc(/C=C/C(=C2/C(=O)N(c3ccccc3)N=C2C)c2ccc(Br)cc2)c1OC?
Answer: EC50 (Streptococcus): > 150 µM (not active); AC50 [5]: > 195 µM (inactive); EC50 (Streptokinase A): > 150 µM (not active); EC50 [4]: > 150 µM (not active)

Question: With Cc1cccc(CCNC(=O)CC2C(=O)NCCN2Cc2ccccc2C)n1 (configuration not stated) as the compound, how does the EC50 (Streptococcus) read?
Answer: Its EC50 is > 150 µM (not active).

Question: And the EC50 (Streptokinase A)?
Answer: Its EC50 is > 150 µM (not active).

Question: What about the EC50 [4] of the same compound?
Answer: The EC50 was > 150 µM (not active).

Question: Which AC50 (Cytochrome P450 2C9) does the source give for CCOc1ccc(C(Nc2ccc(C)cc2)P2(=O)OCC(C)(C)CO2)cc1 (configuration not stated) here?
Answer: Its AC50 is 0.02 µM (inconclusive).

Question: And the AC50 (Cytochrome P450 1A2)?
Answer: Its AC50 is 39.8 µM (inconclusive).

Question: What does the source list for COc1ccccc1C(=O)NC(=S)Nc1ccc(NC(=O)c2ccco2)cc1?
Answer: EC50 (Streptococcus): 114 µM (inconclusive); EC50 (Streptokinase A): > 150 µM (not active)

Question: Which results are given for O=S(=O)(c1ccccc1)N1CCN=C1SCc1c(F)cccc1Cl?
Answer: EC50 (Streptococcus): > 150 µM (not active); EC50 (Streptokinase A): 18.4 µM (active)

Question: Which AC50 [1] does the source give for CCOC(=O)Cc1csc(SCC(=O)c2c(N)n(CC(C)C)c(=O)n(C)c2=O)n1 here?
Answer: The AC50 was 2.35 µM (active).

Question: What about the AC50 [2] of the same compound?
Answer: The AC50 was 8.62 µM (active).

Question: With O=C(CC(Nc1ccc(Cl)cc1Cl)C(=O)O)c1ccccc1 (configuration not stated) as the compound, how does the EC50 [3] read?
Answer: The EC50 was < 0.16 µM (active).

Question: For COc1ccc(C2=NN(S(C)(=O)=O)C(c3cccs3)C2)cc1OC (configuration not stated), which EC50 [3] is on record?
Answer: Its EC50 is > 195 µM (not active).

Question: For CC(=O)c1ccc(NC(=O)C2CCN(S(=O)(=O)c3cccc4cccnc34)CC2)cc1, which EC50 [3] is on record?
Answer: Its EC50 is > 195 µM (not active).

Question: For CCN(CC)CCOc1ccc2nc(N(C)C)sc2c1, which AC50 (Cytochrome P450 2D6) is on record?
Answer: Its AC50 is 15.8 µM (inconclusive).

Question: And the AC50 (Cytochrome P450 1A2)?
Answer: The AC50 was 15.8 µM (inconclusive).

Question: Which EC50 [3] does the source give for O=C(Nc1ccccc1N1CCCC1)c1cccnc1Cl here?
Answer: The EC50 was > 195 µM (not active).

Question: Which AC50 (Cytochrome P450 2D6) does the source give for CCNc1ncc2nc(-c3ccc(F)cc3)c(=O)n(CCOC)c2n1 here?
Answer: The AC50 was 3.98 µM (inconclusive).

Question: And the AC50 (Cytochrome P450 1A2)?
Answer: Its AC50 is 2 µM (inconclusive).

Question: Which AC50 (Cytochrome P450 2D6) does the source give for COc1ccccc1-c1cncnc1NCc1cnc(C)cn1 here?
Answer: Its AC50 is 39.8 µM (inconclusive).

Question: And the AC50 (Cytochrome P450 2C19)?
Answer: The AC50 was 31.6 µM (inconclusive).

Question: What about the AC50 (Cytochrome P450 1A2) of the same compound?
Answer: Its AC50 is 20 µM (inconclusive).
